Data published in PubChem BioAssay AID1963829 (Molecular Pharmacology Branch, DTP, NCI, 2024).

Test system: 935938-334-R-J1-PDC complex spheroid viability
Experiment: Anticancer human tumor 935938-334-R-J1-PDC patient-derived small intestine adenocarcinoma cell line growth inhibition [POLQ]
Conditions: for IC50: curve of first compound; for viability, T/C: stronger effect = lower value
Method in brief: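 Patient-derived tumour cells were co-cultured with HUVEC and mesenchymal stem cells as multicellular spheroids at 37 °C. They were treated with POLQ inhibitors (novobiocin, ART-558, RP6685) alone or combined with other agents. Top concentrations were at or near clinical Cmax (otherwise 10 microM; SN-38 at 1 microM), decreasing in half-log steps.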

[1] = second compound 0.0316 µM, first compound 0.0316 µM
[2] = second compound 0.0316 µM, first compound 0.1 µM
[3] = second compound 0.0316 µM, first compound 0.316 µM
[4] = second compound 0.0316 µM, first compound 1 µM
[5] = second compound 0.0316 µM, first compound 3.16 µM
[6] = second compound 0.0316 µM, first compound 10 µM
[7] = second compound 0.1 µM, first compound 0.0316 µM
[8] = second compound 0.1 µM, first compound 0.1 µM
[9] = second compound 0.1 µM, first compound 0.316 µM
[10] = second compound 0.1 µM, first compound 1 µM
[11] = second compound 0.1 µM, first compound 3.16 µM
[12] = second compound 0.1 µM, first compound 10 µM
[13] = second compound 0.316 µM, first compound 0.0316 µM
[14] = second compound 0.316 µM, first compound 0.1 µM
[15] = second compound 0.316 µM, first compound 0.316 µM
[16] = second compound 0.316 µM, first compound 1 µM
[17] = second compound 0.316 µM, first compound 3.16 µM
[18] = second compound 0.316 µM, first compound 10 µM
[19] = second compound 1 µM, first compound 0.0316 µM
[20] = second compound 1 µM, first compound 0.1 µM
[21] = second compound 1 µM, first compound 0.316 µM
[22] = second compound 1 µM, first compound 1 µM
[23] = second compound 1 µM, first compound 3.16 µM
[24] = second compound 1 µM, first compound 10 µM
[25] = second compound 3.16 µM, first compound 0.0316 µM
[26] = second compound 3.16 µM, first compound 0.1 µM
[27] = second compound 3.16 µM, first compound 0.316 µM
[28] = second compound 3.16 µM, first compound 1 µM
[29] = second compound 3.16 µM, first compound 3.16 µM
[30] = second compound 3.16 µM, first compound 10 µM
[31] = second compound 10 µM, first compound 0.0316 µM
[32] = second compound 10 µM, first compound 0.1 µM
[33] = second compound 10 µM, first compound 0.316 µM
[34] = second compound 10 µM, first compound 1 µM
[35] = second compound 10 µM, first compound 3.16 µM
[36] = second compound 10 µM, first compound 10 µM
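Also: spheroids exposed to drugs for seven days before viability read.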
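For viability, T/C in this document: 100% = DMSO vehicle control wells.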

## CC(C)n1c(=O)n(C)c2cnc3cc(F)c(-c4ccc(OCCCN5CCCCC5)nc4)cc3c21 + Nc1ccc(C#CCN(C(=O)Cc2ncc(C(F)(F)F)cc2C(F)(F)F)c2ccc(F)cc2)nn1
Second compound 0.0316 µM
  IC50: > 10 µM
Second compound 0.1 µM
  IC50: > 10 µM
Second compound 0.316 µM
  IC50: > 10 µM
Second compound 1 µM
  IC50: > 10 µM
Second compound 3.16 µM
  IC50: > 10 µM
Second compound 10 µM
  IC50: > 10 µM
[1]
  viability, T/C: 94.3%
[2]
  viability, T/C: 84.3%
[3]
  viability, T/C: 132%
[4]
  viability, T/C: 82.9%
[5]
  viability, T/C: 90.5%
[6]
  viability, T/C: 79.4%
[7]
  viability, T/C: 100%
[8]
  viability, T/C: 102%
[9]
  viability, T/C: 111%
[10]
  viability, T/C: 84.9%
[11]
  viability, T/C: 117%
[12]
  viability, T/C: 90.6%
[13]
  viability, T/C: 101%
[14]
  viability, T/C: 99.4%
[15]
  viability, T/C: 84.9%
[16]
  viability, T/C: 101%
[17]
  viability, T/C: 113%
[18]
  viability, T/C: 98.4%
[19]
  viability, T/C: 120%
[20]
  viability, T/C: 77.8%
[21]
  viability, T/C: 102%
[22]
  viability, T/C: 113%
[23]
  viability, T/C: 128%
[24]
  viability, T/C: 85.7%
[25]
  viability, T/C: 93.2%
[26]
  viability, T/C: 97.7%
[27]
  viability, T/C: 98.2%
[28]
  viability, T/C: 92.4%
[29]
  viability, T/C: 100%
[30]
  viability, T/C: 94.4%
[31]
  viability, T/C: 107%
[32]
  viability, T/C: 88.8%
[33]
  viability, T/C: 82.9%
[34]
  viability, T/C: 107%
[35]
  viability, T/C: 110%
[36]
  viability, T/C: 109%

## CC(=O)O[C@H]1C(=O)[C@@]2(C)[C@H]([C@H](OC(=O)c3ccccc3)[C@]3(O)C[C@H](OC(=O)[C@H](O)[C@@H](NC(=O)c4ccccc4)c4ccccc4)C(C)=C1C3(C)C)[C@]1(OC(C)=O)CO[C@@H]1C[C@@H]2O + Cc1cccc(N(C)C(=O)C2C(O)CCN2c2nc(C)cc(C(F)(F)F)c2C#N)c1
Second compound 0.0316 µM
  IC50: < 0.00949 µM
Second compound 0.1 µM
  IC50: < 0.00949 µM
Second compound 0.316 µM
  IC50: < 0.00949 µM
Second compound 1 µM
  IC50: < 0.00949 µM
Second compound 3.16 µM
  IC50: < 0.00949 µM
Second compound 10 µM
  IC50: < 0.00949 µM
Second compound 0.0316 µM, first compound 0.00949 µM
  viability, T/C: 35.9%
Second compound 0.0316 µM, first compound 0.03 µM
  viability, T/C: 21.7%
Second compound 0.0316 µM, first compound 0.0949 µM
  viability, T/C: 16.1%
Second compound 0.0316 µM, first compound 0.3 µM
  viability, T/C: 15.5%
Second compound 0.0316 µM, first compound 0.949 µM
  viability, T/C: 19.6%
Second compound 0.0316 µM, first compound 3 µM
  viability, T/C: 18.6%
Second compound 0.1 µM, first compound 0.00949 µM
  viability, T/C: 38.3%
Second compound 0.1 µM, first compound 0.03 µM
  viability, T/C: 20.5%
Second compound 0.1 µM, first compound 0.0949 µM
  viability, T/C: 13.9%
Second compound 0.1 µM, first compound 0.3 µM
  viability, T/C: 13.2%
Second compound 0.1 µM, first compound 0.949 µM
  viability, T/C: 19.7%
Second compound 0.1 µM, first compound 3 µM
  viability, T/C: 15.4%
Second compound 0.316 µM, first compound 0.00949 µM
  viability, T/C: 35.3%
Second compound 0.316 µM, first compound 0.03 µM
  viability, T/C: 21.7%
Second compound 0.316 µM, first compound 0.0949 µM
  viability, T/C: 16.7%
Second compound 0.316 µM, first compound 0.3 µM
  viability, T/C: 19%
Second compound 0.316 µM, first compound 0.949 µM
  viability, T/C: 21.5%
Second compound 0.316 µM, first compound 3 µM
  viability, T/C: 16%
Second compound 1 µM, first compound 0.00949 µM
  viability, T/C: 34.2%
Second compound 1 µM, first compound 0.03 µM
  viability, T/C: 19.4%
Second compound 1 µM, first compound 0.0949 µM
  viability, T/C: 15.6%
Second compound 1 µM, first compound 0.3 µM
  viability, T/C: 16.9%
Second compound 1 µM, first compound 0.949 µM
  viability, T/C: 18.6%
Second compound 1 µM, first compound 3 µM
  viability, T/C: 16%
Second compound 3.16 µM, first compound 0.00949 µM
  viability, T/C: 38.3%
Second compound 3.16 µM, first compound 0.03 µM
  viability, T/C: 17.8%
Second compound 3.16 µM, first compound 0.0949 µM
  viability, T/C: 15.4%
Second compound 3.16 µM, first compound 0.3 µM
  viability, T/C: 16%
Second compound 3.16 µM, first compound 0.949 µM
  viability, T/C: 19.2%
Second compound 3.16 µM, first compound 3 µM
  viability, T/C: 15.8%
Second compound 10 µM, first compound 0.00949 µM
  viability, T/C: 31.6%
Second compound 10 µM, first compound 0.03 µM
  viability, T/C: 17.8%
Second compound 10 µM, first compound 0.0949 µM
  viability, T/C: 12.4%
Second compound 10 µM, first compound 0.3 µM
  viability, T/C: 14.9%
Second compound 10 µM, first compound 0.949 µM
  viability, T/C: 18.1%
Second compound 10 µM, first compound 3 µM
  viability, T/C: 14.4%

## CNCc1ccc(-c2[nH]c3cc(F)cc4c3c2CCNC4=O)cc1 + COC1C(OC(N)=O)C(O)C(Oc2ccc3c(O)c(NC(=O)c4ccc(O)c(CC=C(C)C)c4)c(=O)oc3c2C)OC1(C)C
Second compound 0.0316 µM
  IC50: > 10 µM
Second compound 0.1 µM
  IC50: > 10 µM
Second compound 0.316 µM
  IC50: > 10 µM
Second compound 1 µM
  IC50: > 10 µM
Second compound 3.16 µM
  IC50: > 10 µM
Second compound 10 µM
  IC50: > 10 µM
[1]
  viability, T/C: 124%
[2]
  viability, T/C: 97.1%
[3]
  viability, T/C: 87.9%
[4]
  viability, T/C: 87.4%
[5]
  viability, T/C: 75.4%
[6]
  viability, T/C: 83.4%
[7]
  viability, T/C: 79.9%
[8]
  viability, T/C: 111%
[9]
  viability, T/C: 94.9%
[10]
  viability, T/C: 87.6%
[11]
  viability, T/C: 98.5%
[12]
  viability, T/C: 96.7%
[13]
  viability, T/C: 115%
[14]
  viability, T/C: 108%
[15]
  viability, T/C: 94.9%
[16]
  viability, T/C: 92.3%
[17]
  viability, T/C: 84%
[18]
  viability, T/C: 87.8%
[19]
  viability, T/C: 92.6%
[20]
  viability, T/C: 105%
[21]
  viability, T/C: 113%
[22]
  viability, T/C: 105%
[23]
  viability, T/C: 98.8%
[24]
  viability, T/C: 92.9%
[25]
  viability, T/C: 87.5%
[26]
  viability, T/C: 100%
[27]
  viability, T/C: 70.7%
[28]
  viability, T/C: 75.2%
[29]
  viability, T/C: 94%
[30]
  viability, T/C: 99.2%
[31]
  viability, T/C: 95.7%
[32]
  viability, T/C: 113%
[33]
  viability, T/C: 82.9%
[34]
  viability, T/C: 94.4%
[35]
  viability, T/C: 117%
[36]
  viability, T/C: 88.7%
